Assay results: paper PMC4351682, “Formononetin inhibits enterovirus 71 replication by regulating COX- 2/PGE2 expression” (Virology Journal, 2015)

Legend:
EV71 = assay: Antiviral activity against EV71, comparison of pirodavir and pleconaril (data not shown); assay type: cell-based, enterovirus 71
EV71 VP1 protein = assay: Western blot of EV71 VP1 protein in SK-N-SH cells; assay type: cell-based, enterovirus 71; conditions: EV71 SHZH98 infected SK-N-SH cells
From the text: Figure 2 The antiviral effect of formononetin and pirodavir against EV71 in SK-N-SH cells. (A) Formononetin and pirodavir reduced the expression of EV71 VP1 protein in SK-N-SH cells by western blot assay. (B) Formononetin and pirodavir reduced the expression of EV71 VP1 protein in SK-N-SH cells by immunofluorescence assay. Cells were examined using a fluorescence microscopy (×100). (C) Formononetin and pirodavir reduced the expression of EV71 VP1 RNA by one-step qRT-PCR assay. *P < 0.001 ^# P < 0.05.
Cells were lysed in the M-PER mammalian protein extraction reagent (Thermo, Rockford, IL) containing halt protease inhibitor single-use cocktail (Thermo). The protein concentration was determined by the BCA reagents (Thermo). About 10 μg proteins were denatured and applied to sodium dodecyl sulfate-polyacrylamide gel electrophoresis (SDS-PAGE). The electrophoresis products were transferred to a polyvinyl idenefluoride (PVDF) film and PVDF membranes were then incubated at room temperature with specific primary antibody. After a standard washing, membranes were incubated with horse radish peroxidase (HRP)-labeled secondary antibody. The assay developed using a chemiluminescent substrate. […]

PGE2 = PGE2 release assay (EIA) in EV71-infected SK-N-SH cells; assay type: cell-based; conditions: pretreatment 24 h, formononetin 14.91 μmol/L, pirodavir 1.08 μmol/L, supernatant at 24 h p.i.
Method: Figure 4 Formononetin could inhibit EV71-induced COX-2 expression and PGE 2 production. (A) Formononetin but not pirodavir can reduce the expression of COX-2 induced by EV71 infection. SK-N-SH cells were mock-infected or infected with 480 pfu/well of EV71 (SHZH98) for 2 h. The cells were then treated with formononetin (14.91 μmol/L) and pirodavir (1.08 μmol/L), respectively, for 24 h. The cells were harvested and EV71-VP1 and COX-2 were examined by western blot. (B) Formononetin but not pirodavir can reduce the release of PGE2 stimulated by EV71 infection. SK-N-SH cells were pretreated with formononetin (14.91 μmol/L) or pirodavir (1.08 μmol/L) for 24 h. The cells were infected with 4.8 × 10^5 pfu/well of EV71 (SHZH98). At 24 h p.i., the culture supernatants were harvested for PGE2 release assay. For the detection of PGE2 release, SK–N–SH cells (3 × 10^5 cells/well) were seeded into 24-well culture plates and were incubated for 16 h. And then the cells were serum-deprived for 24 h and incubated with EV71 for the indicated time intervals. When drugs were used, they were added 24 h prior to the application of EV71. After treatment, the supernatants were harvested. The supernatant from each sample was assayed using a PGE2 EIA kit (AMEKO) following the manufacturer’s instruction. […] The absorbance of each well was measured at 450 nm.

COX-2 = assay: Western blot of EV71-induced COX-2 expression in SK-N-SH cells; assay type: cell-based; conditions: formononetin 14.91 μmol/L, pirodavir 1.08 μmol/L, 24 h
Method: Figure 4 Formononetin could inhibit EV71-induced COX-2 expression and PGE 2 production. (A) Formononetin but not pirodavir can reduce the expression of COX-2 induced by EV71 infection. SK-N-SH cells were mock-infected or infected with 480 pfu/well of EV71 (SHZH98) for 2 h. The cells were then treated with formononetin (14.91 μmol/L) and pirodavir (1.08 μmol/L), respectively, for 24 h. The cells were harvested and EV71-VP1 and COX-2 were examined by western blot. (B) Formononetin but not pirodavir can reduce the release of PGE2 stimulated by EV71 infection. SK-N-SH cells were pretreated with formononetin (14.91 μmol/L) or pirodavir (1.08 μmol/L) for 24 h. The cells were infected with 4.8 × 10^5 pfu/well of EV71 (SHZH98). At 24 h p.i., the culture supernatants were harvested for PGE2 release assay. Cells were lysed in the M-PER mammalian protein extraction reagent (Thermo, Rockford, IL) containing halt protease inhibitor single-use cocktail (Thermo). The protein concentration was determined by the BCA reagents (Thermo). About 10 μg proteins were denatured and applied to sodium dodecyl sulfate-polyacrylamide gel electrophoresis (SDS-PAGE). The electrophoresis products were transferred to a polyvinyl idenefluoride (PVDF) film and PVDF membranes were then incubated at room temperature with specific primary antibody. […]

EV71 SHZH98 strain = assay: CPE inhibition assay for anti-EV71 in Vero cells; assay type: cell-based, enterovirus 71; conditions: Enterovirus A, 48 h
Method: The anti-EV71 activity of formononetin was assayed by CPE inhibition method. Briefly, cells (3 × 10^4 cells/well) were plated into 96-well culture plates for incubation of 24 h. The medium was then removed and cells were infected with EV71 of 80 pfu/well. Then, various concentrations of formononetin were supplemented for incubation of another 48 h. […] The selectivity index (SI) was calculated as the ratio of TC50/IC50 [19].

EV71 strain JS-52 = assay: CPE inhibition assay, EV71 strain JS-52 in Vero cells; assay type: cell-based, enterovirus 71; conditions: Enterovirus A, EV71 JS-52, Vero cells
Method: (§1) The anti-EV71 activity of formononetin was assayed by CPE inhibition method. Briefly, cells (3 × 10^4 cells/well) were plated into 96-well culture plates for incubation of 24 h. The medium was then removed and cells were infected with EV71 of 80 pfu/well. Then, various concentrations of formononetin were supplemented for incubation of another 48 h. The IC50 defined as the minimal concentration of inhibitor required to inhibit 50% of CPE was determined by Reed & Muench method. The selectivity index (SI) was calculated as the ratio of TC50/IC50 [19].

EV71 strain BrCr = assay: CPE inhibition assay, EV71 strain BrCr in Vero cells; assay type: cell-based, enterovirus 71; conditions: Enterovirus A
Method: as §1

Row | Compound | Antiviral activity against EV71 compared with pleconaril (EV71) | Expression of EV71 VP1 protein (western blot) (EV71 VP1 protein) | EV71-stimulated PGE2 release (PGE2) | EV71-stimulated COX-2 expression (COX-2) | IC50 (EV71 SHZH98 strain) | IC50 (EV71 strain JS-52) | IC50 (EV71 strain BrCr)
1 | CCOC(=O)c1ccc(OCCC2CCN(c3ccc(C)nn3)CC2)cc1 [Pirodavir, reference compound] | better than pleconaril | decrease | not | not | 0.38 ± 0.08 µM |  | 
2 | COc1ccc(-c2coc3cc(O)ccc3c2=O)cc1 [Formononetin] |  | decrease the expression of VP1 protein in a dose dependent manner | attenuated | inhibited | 3.45 ± 0.55 µM | 17.9 ± 8.51 µM | 6.47 ± 4.4 µM
